Test results taken from patent US20090226427A1, “NOVEL PHARMACEUTICAL COMPOSITIONS FOR MODULATING ANGIOGENESIS” (priority 1999, published 2009).

Experiments:
[1] = system: caveolin/eNOS interaction; details: CMECs; P>0.1, n=3
Experimental: (§3) In some experiments, ECs were recovered from Matrigel after a 5-minute incubation with 50 mg/mL collagenase under constant agitation, followed by two sequences of washing/centrifugation (2000 rpm for 5 minutes at 4° C.).

AoECs = test: aortic ring culture in Matrigel, AoEC network organization; format: cell-based, rat
Experimental: Cultures of AoECs and CoMECs organized in a network were then challenged at day 5 by incubation under serum-free conditions for 24 to 48 hours with or without some of the drugs mentioned above. […] Tube formation was observed using an inverted phase-contrast microscope (Zeiss Axiovert 25), and images were captured with a videographic system (Pixera Pro). The tube formation index was determined by measuring the length of tubes in random fields from each well using the Image J program. Statistical analyses were made using the Student t test or one-way ANOVA where appropriate.

[2] = system: phospho-Akt/eNOS interaction; test: eNOS/phospho-Akt co-immunoprecipitation, statin-exposed HUVECs
caveolin [3] = test: caveolin immunoblot, AECs; format: cell-based, Bovine; details: isolated aortic ECs after statin treatment
Source text: (§1) Therefore, the effects of statin exposure on the absolute amounts of caveolin in AoECs and CMECs was examined.

caveolin [4] = test: caveolin immunoblot, CoMECs; format: cell-based, human; details: microvascular outgrowing CoMECs
Source text: as §1

phospho-Ser473-Akt = phospho-Ser473-Akt immunoblot, statin-exposed HUVECs; details: 5-minute incubation
phospho-Ser1177-eNOS [5] = test: phospho-Ser1177 eNOS immunoblot, CMECs; format: cell-based, Mouse
Source text: The modulation of eNOS phosphorylation by statins was examined using anti-phospho-Ser1177 eNOS antibodies.

hsp90 = hsp90 tyrosine phosphorylation, HUVECs; format: cell-based, human
HUVECs = test: angiogenesis assay on Matrigel, HUVECs; format: cell-based, human; details: HUVECs; 0.1 μmol/L
Experimental: (§2) Tube formation was observed using an inverted phase-contrast microscope (Zeiss Axiovert 25), and images were captured with a videographic system (Pixera Pro). The tube formation index was determined by measuring the length of tubes in random fields from each well using the Image J program. Statistical analyses were made using the Student t test or one-way ANOVA where appropriate.
Transfection and peptide loading was performed by reversible permeabilization: HUVECs were transfected with the hsp90 cDNA (a gift from Dr W. C. Sessa, Yale University, New Haven, Conn.) using Lipofectamine (Invitrogen) according to the manufacturer's protocol; an irrelevant plasmid encoding β-galactosidase was used as a control to obtain identical amounts of transfected DNA in each condition. HUVECs were also reversibly permeabilized, as previously reported (Feron et al. J Biol. Chem. 1998; 273:30249-30254), to introduce synthetic peptides derived from the caveolin scaffolding domain (CSD).

caveolin [6] = test: caveolin immunoblot, CMECs; format: cell-based, Mouse; details: 3-hour exposure of CMECs
Source text: as §1

CMECs = test: angiogenesis assay on Matrigel, CMECs; format: cell-based, Mouse
Experimental: as §2

caveolin [7] = test: caveolin immunoblot, AoECs; format: cell-based, rat; details: n=3, P<0.01
Source text: as §1

[8] = system: caveolin/eNOS interaction; test: caveolin/eNOS co-immunoprecipitation, AoECs; format: cell-based, rat
Experimental: as §3

Akt/hsp90 interaction = test: Akt/hsp90 co-immunoprecipitation, statin-exposed HUVECs; format: cell-based, human; details: 5-minute exposure
phospho-Ser1177-eNOS [9] = test: phospho-Ser1177-eNOS immunoblot, statin-exposed HUVECs
phospho-eNOS = phospho-eNOS immunoblot and hsp90/eNOS interaction, AoECs; format: cell-based, rat
endothelial cells = test: sandwich Matrigel model of endothelial tube formation; format: cell-based; details: non-transfected cells
Experimental: Indeed, while endothelial cells culture leads to pavimentous organization when plated on dishes (FIG. 1A), endothelial cells progressively form tubes when cultured within gels of collagen, fibrin or Matrigel®. Accordingly, in the “3-D model”, endothelial cells are mixed to the matrix before gelification and tube-like structures are obtained after 48-72 hours (FIG. 1B); this model, however, reduces the efficiency of transfection. In the “sandwich model”, cells are first cultured to confluence on a first layer of matrix, and are then covered by a second matrix layer; cells are easily transfected in the interval preceding the addition of the upper layer. The latter technique allows the formation of endothelial tubes in 3-6 hours; the tube structures are mature 12 hours after induction (FIG. 1C) and then start to regress.
Of note, when endothelial cells were transfected with an irrelevant construct (β-galactosidase-encoding), no change in the rate and extent of tube formation was observed.

eNOS/hsp90 interaction = test: eNOS/hsp90 co-immunoprecipitation, statin-exposed HUVECs; details: 5-minute exposure
[10] = system: TLT cells (hepatocarcioma); test: TLT tumor mouse model, tumor volume; format: in vivo, mice; details: immunological detection of HA tag in tumor endothelial cells
Source text: Hepatocarcinoma cells are able to grow as a tumor after injection in the leg of mice is dependent on the ability of endothelial cells to develop new vessels to “feed” the tumor. This vessel development depends on the capacity of endothelial cells to produce NO through eNOS activation in these cells, itself regulated by the post-translational modulators it was previously identified in the in vitro experiments, e.g. caveolin-1.
Tumor mouse model: 30-40 g male NMRI mice received an IP injection of TLT cells (hepatocarcioma). Ascite cells were recovered in physiological serum and IM-injected in the posterior left leg of ketamine/xylazin anesthetized mice. Tumors grew for 9-12 days to reach 8±1 mm of diameter, the original diameter for treatment (caveolin plasmid injection) at day 0.
The effect of injection of plasmids encoding caveolin-1 has been evaluated on the volume of the growing tumor after tumor implantation in the leg (FIG. 2). Caveolin-encoding plasmids were injected either intravenously or directly in the tumor. The working hypothesis was that heterologous over-expression of caveolin-1 in endothelial cells will inhibit eNOS activation in endothelial cells, with a subsequent inhibition of angiogenesis that will result in a decrease in tumor growth.

In the case of CC(C)c1c(C(=O)Nc2ccccc2)c(-c2ccccc2)c(-c2ccc(F)cc2)n1CC[C@@H](O)C[C@@H](O)CC(=O)O [atorvastatin], the “amount of caveolin immunoprecipitated by eNOS antibodies” value [1] is reported as “not significantly altered”, the “serum-driven formation of the AoEC network” value (AoECs; atorvastatin present during 5 to 7 days of cell growth) is reported as “did not significantly influence” and the “network organization after serum deprivation” value (AoECs; statin pretreatment, then deprived of serum for 48 hours) is reported as “dramatically stabilized the network organization”. The “time to maximum of the Akt-hsp90-eNOS mutual interaction” value [2] was 1 to 2 h, the “association of Akt with eNOS” value ([2]; 5-minute exposure) was “insufficient to promote the association of Akt with eNOS” and the caveolin abundance (caveolin [3]) was “significant decrease in caveolin abundance”. For the same molecule, the caveolin expression (caveolin [4]) was “did not any alteration in caveolin expression”, the Akt phosphorylation (phospho-Ser473-Akt) was “sufficient to induce Akt phosphorylation” and the “eNOS phosphorylation (Ser1177)” value (phospho-Ser1177-eNOS [5]) was “did produce eNOS phosphorylation”. For the same molecule, the “tyrosine phosphorylation of hsp90” value (hsp90) was “rapidly and dose-dependently induced”, the tube formation (HUVECs) was “stimulated tube formation” and the abundance of caveolin (caveolin [6]) was “did not alter”. For the same molecule, the “time of maximal proangiogenic effect” value (CMECs; CMECs on Matrigel) was 3 h, the “formation of capillary-like structures on Matrigel” value (CMECs; freshly isolated CMECs, atorvastatin 1 _mol/L) was “rapidly led to the formation of capillary-like structures” and the “reduction of the AoEC pool of caveolin” value (caveolin [7]) was 26+/−5%. For the same molecule, the “eNOS found in the caveolin immunoprecipitate” value ([8]; AoECs exposed to atorvastatin for 5 days, n=6, 44+/−8% without statin) was 8+/−5%, the “change in amount of caveolin immunoprecipitated by eNOS antibodies” value ([8]; atorvastatin-treated AoECs, P<0.01, n=3) was −73+/−7% and the “interaction of hsp90 with Akt” value (Akt/hsp90 interaction) was “sufficient to promote the interaction of hsp90 with both Akt and eNOS”. For the same molecule, the eNOS phosphorylation (phospho-Ser1177-eNOS [9]; 5-minute incubation) was “did not promote eNOS phosphorylation”, the eNOS phosphorylation (phospho-Ser1177-eNOS [9]; 30 minutes exposure) was “produced eNOS phosphorylation” and the “phosphorylation of eNOS” value (phospho-eNOS; AoECs, 5-day treatment then 48-hour period in the absence of atorvastatin) was “no effect”. The “amounts of phospho-eNOS and hsp90/eNOS interaction” value (phospho-eNOS; uninterrupted exposure of outgrowing AoECs (or isolated AECs)) was “significant increase”, the endothelial tube formation (endothelial cells) was “accelerated the endothelial tube formation” and the “interaction of hsp90 with eNOS” value (eNOS/hsp90 interaction) was “sufficient to promote the interaction of hsp90 with both Akt and eNOS”.

B1: recombinant (HA-tagged-) caveolin: recombinant caveolin-1 tagged with hemagglutinin antigen, expressed from the injected plasmid (protein, UniProt Q03135 2-178, looked up)
Caveolin-1: SGGKYVDSEGHLYTVPIREQGNIYKPNNKAMADELSEKQVYDAHTKEIDLVNRDPKHLNDDVVKIDFEDVIAEPEGTHSFDGIWKASFTTFTVTKYWFYRLLSALFGIPMALIWGIYFAILSFLHIWAVVPCIKSFLIEIQCISRVYSIYVHTVCDPLFEAVGKIFSNVRINLQKEI
modifications: HA tag
notes: recombinant caveolin-1 tagged with hemagglutinin antigen, expressed from the injected plasmid
With B1 the “extent of recombinant caveolin expression in relation to tumor volume” value [10] was “inversely correlated to the tumor volume”.
